SMILES strings stand for the structures.

The experiment deals with T1, PDE4D5 (Homo sapiens, UniProt Q08499).
T1 construct: stably expressed the full-length human PDE4D5, PDE4B1 and PDE4A4 long isoforms; made in house
T1 sequence (Q08499 1-745 isoform Q08499-6): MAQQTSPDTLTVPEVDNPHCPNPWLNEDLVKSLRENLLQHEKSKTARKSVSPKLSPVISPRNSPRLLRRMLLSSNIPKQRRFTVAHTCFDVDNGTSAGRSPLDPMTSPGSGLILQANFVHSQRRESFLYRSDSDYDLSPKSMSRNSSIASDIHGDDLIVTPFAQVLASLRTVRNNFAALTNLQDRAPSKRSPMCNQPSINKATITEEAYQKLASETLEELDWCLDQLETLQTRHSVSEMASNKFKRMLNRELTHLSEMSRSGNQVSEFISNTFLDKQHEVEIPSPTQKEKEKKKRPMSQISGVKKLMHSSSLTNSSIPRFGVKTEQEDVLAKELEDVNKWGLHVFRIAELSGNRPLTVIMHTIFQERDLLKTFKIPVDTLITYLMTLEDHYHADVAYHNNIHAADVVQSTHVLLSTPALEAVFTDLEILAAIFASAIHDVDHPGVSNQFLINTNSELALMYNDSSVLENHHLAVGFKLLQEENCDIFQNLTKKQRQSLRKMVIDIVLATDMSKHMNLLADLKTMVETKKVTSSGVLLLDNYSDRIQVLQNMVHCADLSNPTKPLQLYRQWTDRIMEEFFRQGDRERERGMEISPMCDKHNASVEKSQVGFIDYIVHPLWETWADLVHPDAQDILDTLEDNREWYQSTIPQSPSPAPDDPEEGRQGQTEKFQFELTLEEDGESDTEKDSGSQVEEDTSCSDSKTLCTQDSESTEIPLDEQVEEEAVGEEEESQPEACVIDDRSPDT
Put plainly: PDE assay, [3H]cAMP hydrolysis by HEK-PDE4D5 cell lysate cytosol fraction. It counts as biochemical. As to conditions: 30 μM; mean % increase in counts over basal activity. How it is done:
HEK 293 cells were transfected with pDEST™ PDE4 expression vectors using Lipofectamine LTX/Plus reagent (Invitrogen) as outlined by the manufacturer and clonal isolates expanded to obtain cell lines that stably expressed the full-length human PDE4D5, PDE4B1 and PDE4A4 long isoforms and the full length human PDE4B2 short isoform. These were called the HEK-PDE4D5, HEK-PDE4B1, HEK-PDE4A4 and HEK-PDE4B2 cell lines, respectively.
HEK-PDE4D5 cells were seeded out in 100 mm plates and incubated at 37° C. in an atmosphere of 5% CO2, 95% air. Cell lysates were prepared using KHEM buffer [50 mM KCl, 10 mM EGTA, 50 mM HEPES (pH 7.2), 1.92 mM MgCl2].
To prepare the cell lysates, the 100 mm plates containing the cells were placed on ice and washed with ice-cold PBS (phosphate buffered saline, pH 7.4). KHEM buffer (500 μl) was added to the cells. Cells were then scraped off the plate and triturated using a needle (BD Microlance™ 0.8, 40 mm). The lysed cells were then centrifuged at 2000 rpm for 10 minutes to remove cell debris and the supernatant (cell lysate containing recombinant PDE4D5) was transferred to a fresh tube and kept on ice.
The cell lysate containing recombinant PDE4D5 was transferred into a centrifuge tube and placed into an ultracentrifuge (BECKMAN COULTER) and spun at high speed (100,000 g) for 30 minutes at 4° C. The cytosol fraction was then collected and its protein amount determined using a BCA protein assay.
PDE assays were performed in thin walled V-bottomed 96-well plates. The assays were performed at a final concentration of 10 mM Tris/5 mM MgCl2 plus PDE4D5 cell lysate cytosol fraction, containing over-expressed PDE4D5, with and without test compound. The lysate/compound mix were incubated together for 15 min at room temperature on an orbital shaker prior to addition of [^3H] cAMP (final concentration 1 μM [^3H] cAMP; Perkin Elmer) to a final volume of 50 μl per reaction. The reactions were then incubated for 10 minutes at 30° C., terminated by heating for 2 min at 95° C. and allowed to cool. Snake venom (12.5 μl of 1 mg/ml; Crotalus atrox, Sigma) was then added and the plates were agitated and incubated for a further 15 minutes at 30° C. Dowex ion exchange resin (Sigma, chloride form, 200-400 mesh; 200 μl; prepared as a 1:1 Dowex: water stock, thoroughly re-suspended and diluted 2:1 with ethanol) was then added to each well and the plates incubated for 15 min at room temperature on an orbital shaker ensuring sufficient agitation for resin suspension (550 RPM). The reaction mixture was then transferred to a 96 well filter plate (Millipore; […] pore size) and filtered into a receiving 96-well plate to remove the dowex suspension. 30 μL of the filtered solution was then transferred to the wells of an Opti-plate (Perkin Elmer) 96 well assay plate and 120 μl of Microscint 40 scintillation fluid was added. The plate was then placed on an orbital shaker for 10 min at high speed (900 RPM) to mix the sample with scintillation fluid prior to quantitation using a plate based scintillation counter (Top-Count).
The % increase in counts in the presence of test compound at a particular concentration indicates the % increase in enzyme activity at that concentration.
In turn, `CC(C)Oc1cc(-c2nc(CC(=O)N[C@H]3CCOc4ccccc43)n(C)n2)ccc1Cl` [Example 48, 2-[3-(4-Chloro-3-isopropyloxyphenyl)-1-methyl-1H-1,2,4-triazol-5-yl]-N-[(4S)-3,4-dihydro-2H-1-benzopyran-4-yl]acetamide] yielded an activation at 30 µM of 45.2%.

As for `O=C(O)CCn1nc(-c2ccc(Cl)c(F)c2)nc1CC(=O)NCc1cc(Cl)cc(Cl)c1` [Example 58, 3-[3-(4-Chloro-3-fluorophenyl)-5-({[(3,5-dichlorophenyl)methyl]carbamoyl}methyl)-1H-1,2,4-triazol-1-yl]propanoic acid], the activation at 30 µM is 128%.

As to `CCn1nc(-c2ccc(Cl)c(F)c2)nc1CC(=O)NCc1cc(C)cc(F)c1` [Example 11, 2-[3-(4-Chloro-3-fluorophenyl)-1-ethyl-1H-1,2,4-triazol-5-yl]-N-[(3-fluoro-5-methylphenyl)methyl]acetamide], the activation at 30 µM was found to be 52.8%.

In the case of `CCn1nc(-c2ccc(Cl)c(F)c2)nc1CC(=O)N[C@@H]1c2ccccc2C[C@@H]1O` [Example 62, 2-[3-(4-Chloro-3-fluorophenyl)-1-ethyl-1H-1,2,4-triazol-5-yl]-N-[(1R,2S)-2-hydroxy-2,3-dihydro-1H-inden-1-yl]acetamide], the activation at 30 µM was determined as 49.8%.

On to `CCn1nc(-c2ccc(C#N)cc2)nc1CC(=O)NCc1cc(Cl)cc(Cl)c1` [Example 30, 2-[3-(4-Cyanophenyl)-1-ethyl-1H-1,2,4-triazol-5-yl]-N-[(3,5-dichlorophenyl)methyl]acetamide], for which the activation at 30 µM is 45.9%.

In the case of `O=C(Cc1nc(-c2ccc(Cl)c(F)c2)nn1CC1CC1)N[C@H]1CCc2ccccc21` [Example 72, 2-[3-(4-Chloro-3-fluorophenyl)-1-(cyclopropylmethyl)-1H-1,2,4-triazol-5-yl]-N-[(1S)-2,3-dihydro-1H-inden-1-yl]acetamide], the activation at 30 µM was determined as 92%.

For the molecule `CCc1cc(CNC(=O)Cc2nc(-c3ccc(Cl)c(F)c3)nn2CC)cc(CC)n1` [Example 80, 2-[3-(4-Chloro-3-fluorophenyl)-1-ethyl-1H-1,2,4-triazol-5-yl]-N-[(2,6-diethylpyridin-4-yl)methyl]acetamide], the activation at 30 µM amounted to 58.9%.

With `CCOc1cccc(CNC(=O)Cc2nc(-c3ccc(Cl)c(F)c3)nn2CC)c1` [Example 14, 2-[3-(4-Chloro-3-fluorophenyl)-1-ethyl-1H-1,2,4-triazol-5-yl]-N-[(3-ethoxyphenyl)methyl]acetamide], the activation at 30 µM stood at 142%.

Regarding `CC(C)Oc1cc(-c2nc(CC(=O)NCc3cccc(F)c3)n(C)n2)ccc1Cl` [Example 46, 2-[3-(4-Chloro-3-isopropyloxyphenyl)-1-methyl-1H-1,2,4-triazol-5-yl]-N-[(3-fluorophenyl)methyl]acetamide], the activation at 30 µM turned out to be 26.2%.

`CCn1nc(-c2ccc(Cl)c(F)c2)nc1CC(=O)NCc1ccc(OC)cc1` [Example 16, 2-[3-(4-Chloro-3-fluorophenyl)-1-ethyl-1H-1,2,4-triazol-5-yl]-N-[(4-methoxyphenyl)methyl]acetamide] came in with an activation at 30 µM of 44.7%.

The molecule `CCn1nc(-c2ccc(Cl)c(F)c2)nc1CC(=O)NCc1ccnc(C(F)F)c1` [Example 84, 2-[3-(4-Chloro-3-fluorophenyl)-1-ethyl-1H-1,2,4-triazol-5-yl]-N-{[2-(difluoromethyl)pyridin-4-yl]methyl}acetamide] had an activation at 30 µM of 32.2%.

With `COc1cccc(CNC(=O)Cc2nc(-c3ccc(Cl)c(F)c3)nn2C)c1` [Example 19, 2-[3-(4-Chloro-3-fluorophenyl)-1-methyl-1H-1,2,4-triazol-5-yl]-N-[(3-methoxyphenyl)methyl]acetamide], the activation at 30 µM came out at 87.8%.

`CCn1nc(-c2ccc(Cl)c(F)c2)nc1CC(=O)NC1(c2cc(C)nc(C)c2)CC1` [Example 86, 2-[3-(4-Chloro-3-fluorophenyl)-1-ethyl-1H-1,2,4-triazol-5-yl]-N-[1-(2,6-dimethylpyridin-4-yl)cyclopropyl]acetamide] gave an activation at 30 µM of 37.3%.

Source of the values: US11560373B2, “Compounds and their use as PDE4 activators” (Mironid Limited, priority 2018, dated 2023).
